Experimental data: US8653102B2, “Substituted 2-oxo- and 2-thioxo-dihydroquinoline-3-carboxamides as KCNQ2/3 modulators” (Gruenenthal GmbH, priority 2010, dated 2014)
Each block holds one compound with its values, some of them ahead of it.

Legend:
[1] = tested on: rat; test: Low-intensity tail flick test (rat); format: in vivo; conditions: for ED50: po, peroral, at time of maximum efficacy
Method: Method II. Low-Intensity Tail Flick Test (Rat)
In the low-intensity tail flick test, the determination of the antinociceptive effect of the compounds according to the invention towards an acute noxious thermal stimulus is carried out by measuring the withdrawal reflex of the rat tail (tail flick) in response to a radiant heat beam (analgesia meter; model 2011 of the company Rhema Labortechnik, Hofheim, Germany) according to the method described by D'Amour and Smith (J. Pharm. Exp. Ther. 72, 74 79 (1941). To this end, the rats were placed in a plexiglas restrainer, and a low-intensity radiant heat beam (48° C.) was focused onto the dorsal surface of the tail root. The stimulus intensity was adjusted to result in a mean pre-drug control withdrawal latency of about 7 s, thus also allowing a supraspinal modulation of the spinally mediated acute nociceptive reflex. A cutoff time of 30 s was applied to avoid tissue damage. Male Sprague-Dawley rats (Janvier, Le Genest St. Isle, Frankreich) with weights of 200-250 g were used. 10 rats were used per group. Before administration of a compound according to the invention, the animals were pre-tested twice in the course of five minutes and the mean of these measurements was calculated as the pre-test mean. The antinociceptive effect was determined at 20, 40 and 60 min after peroral compound administration. The antinociceptive effect was calculated based on the increase in the tail withdrawal latency according to the following formula and is expressed as percentage of the maximum possible effect (MPE [%]): MPE=[(T1−T0)/(T2−T0)]*100
In this, T0 is the control latency time before and T1 the latency time after administration of the compound, T2 is the cutoff time and MPE is the maximum possible effect. Employing variant analysis (repeated measures ANOVA) allowed testing of statistically significant differences between the compounds according to the invention and the vehicle group. The significance level was set to p≦0.05. To determine the dose dependency, the particular compound according to the invention was administered in 3-5 logarithmically increasing doses, including a threshold dose and a maximum effective dose, and the ED50 values were determined with the aid of regression analysis. The ED50 calculation was performed at the time of maximum efficacy (usually 20 min after administration of the compounds).

[2] = target: T1, KCNQ2/3 channels (Homo sapiens, UniProt O43525+O43526); test: Fluorescence assay using a voltage sensitive dye (fluorimetry); format: cell-based; conditions: CHO-K1 cells expressing KCNQ2/3 channels; for Emax: relative to retigabine (RTG) = 100%, read-out: Fluorimetry % efficacy (RTG = 100%)
T1 construct: expressed in transfected cells; host or cells: CHO-K1 cells kept under selection antibiotics
Method: Pharmacological Experiments Method I. Fluorescence Assay Using a Voltage Sensitive Dye (Fluorimetry)
[…] CHO-K1 cells expressing KCNQ2/3 channels are cultivated adherently at 37° C., 5% CO2 and 95% humidity in cell culture bottles (e.g. 80 cm^2 TC flasks, Nunc) with DMEM-high glucose (Sigma Aldrich, D7777) including 10% FCS (PAN Biotech, e.g. 3302-P270521) or alternatively MEM Alpha Medium (1×, liquid, Invitrogen, #22571), 10% fetal calf serum (FCS) (Invitrogen, #10270-106, heat-inactivated) and the necessary selection antibiotics.
Before being sown out for the measurements, the cells are washed with 1×DPBS buffer Ca^2+/Mg^2+-free (e.g. Invitrogen, #14190-094) and detached from the bottom of the culture vessel by using Accutase (PAA Laboratories, #L11-007) (incubation with Accutase for 15 min at 37° C.). The cell number is determined using a CASY™ cell counter (TCC, Schärfe System). Depending on the optimal density for each individual cell line, 20,000-30,000 cells/well/100 μl are seeded onto 96-well Corning™ CellBIND™ assay plates (Flat Clear Bottom Black Polystyrene Microplates, #3340). Freshly seeded cells are then left to settle for one hour at room temperature, followed by incubation for 24 hours at 37° C., 5% CO2 and 95% humidity.
The voltage-sensitive fluorescent dye from the Membrane Potential Assay Kit (Red™ Bulk format part R8123 for FLIPR, MDS Analytical Technologies™) is prepared by dissolving the contents of one vessel Membrane Potential Assay Kit Red Component A in 200 ml of extracellular buffer (ES buffer, 120 mM NaCl, 1 mM KCl, 10 mM HEPES, 2 mM CaCl2, 2 mM MgCl2, 10 mM glucose; pH 7.4). After removal of the nutrient medium, the cells are washed once with 200 μl of ES buffer, then loaded for 45 min at room temperature in 100 μl of dye solution in the dark.
Fluorescence measurements are carried out in a BMG Labtech FLUOstar™, BMG Labtech NOVOstar™ or BMG Labtech POLARstar™ instrument (525 nm excitation, 560 nm emission, Bottom Read mode). After incubation with the dye, 50 μl of the test substances in the desired concentrations, or 50 μl of ES buffer for control purposes, are applied to the wells of the assay plate and incubated for 30 min at room temperature while being shielded from light. The fluorescence intensity of the dye is then measured for 5 min and the fluorescence value F1 of each well is thus determined at a given, constant time. 15 μl of a KCl solution are then added to each well (final concentration of potassium ions 92 mM). The change in fluorescence intensity is subsequently monitored until all the relevant values have been obtained (mainly 5-30 min). At a given time post KCl application, a fluorescence value F2 is determined, in this case at the time of the fluorescence peak.
For calculation, the fluorescence intensity F2 is corrected for the fluorescence intensity F1, and the activity (ΔF/F) of the target compound on the potassium channel is determined as follows:
In order to determine whether a substance has agonistic activity,
A substance has an agonistic activity on the potassium channel if
[formula] increases dose dependently.
Calculations of EC50 and IC50 values are carried out with the aid of ‘Prism v4.0’ software (GraphPad Software™).

Compound: Cc1c(C(=O)NCc2cccc(F)c2)c(=S)n(C)c2cc(C(F)(F)F)ccc12 [Example 3, N-[(3-fluorophenyl)-methyl]-1,4-dimethyl-2-thioxo-7-(trifluoromethyl)-1H-quinoline-3-carboxylic acid amide]
Low intensity tail flick, rat, peroral, MPE (dose) ([1]; dose 10.00 mg/kg): 24 (10.00) %
EC50 [2]: 124 nM
Emax [2]: 101%

Compound: COCCn1c(=O)c(C(=O)NCc2cccc(F)c2)c(C)c2ccc(C(F)(F)F)cc21 [Example 4, N-[(3-fluorophenyl)-methyl]-1-(2-methoxy-ethyl)-4-methyl-2-oxo-7-(trifluoromethyl)-1H-quinoline-3-carboxylic acid amide]
ED50 [1]: 2.8 mg/kg
EC50 [2]: 850 nM
Emax [2]: 195%

More lines, in order of falling EC50 [2], values ahead:

EC50 [2]: 598 nM
Emax [2]: 146%
Compound: COCCn1c(=O)c(C(=O)NCc2ccc(F)cc2)c(C)c2ccc(C(F)(F)F)cc21 [Example 7, N-[(4-fluorophenyl)-methyl]-1-(2-methoxy-ethyl)-4-methyl-2-oxo-7-(trifluoromethyl)-1H-quinoline-3-carboxylic acid amide]
Low intensity tail flick, rat, peroral, MPE (dose) ([1]; dose 3.16 mg/kg): 47 (3.16) %

EC50 [2]: 245 nM
Emax [2]: 177%
Compound: Cc1c(C(=O)NCc2cccc(F)c2)c(=O)n(C)c2cc(C(F)(F)F)ccc12 [Example 1, N-[(3-fluorophenyl)-methyl]-1,4-dimethyl-2-oxo-7-(trifluoromethyl)-1H-quinoline-3-carboxylic acid amide]
ED50 [1]: 2.3 mg/kg

EC50 [2]: 189 nM
Emax [2]: 169%
Compound: Cc1c(C(=O)NCc2ccc(F)cc2)c(=O)n(C)c2cc(C(F)(F)F)ccc12 [Example 6, N-[(4-fluorophenyl)-methyl]-1,4-dimethyl-2-oxo-7-(trifluoromethyl)-1H-quinoline-3-carboxylic acid amide]
ED50 [1]: 0.6 mg/kg
